Experimental data published in PubChem BioAssay AID330 (DTP/NCI, 2004).
Where “and” joins values, the source holds several entries; their conditions need not be identical. Identical values can stand only once. Toxic doses and inconclusive results are not listed.

System: P388 leukemia ip, CD2F1 mice, survival T/C
Test: NCI In Vivo Anticancer Drug Screen. Data for tumor model P388 Leukemia (intraperitoneal) in CD2F1 (CDF1) mice
Details: endpoint: median survival time, higher = longer survival
Method in brief: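 Mice carrying the transplanted tumor received test compound or vehicle. Survival was recorded in each group, and the value is the treated-group measurement divided by that of the vehicle-treated control group.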

[1] = dose: 50.0 mg/kg/injection, schedule: Q01DX005 (ip), vehicle: saline with Tween-80
[2] = dose: 100.0 mg/kg/injection, schedule: Q01DX005 (ip), vehicle: saline with Tween-80
[3] = dose: 200.0 mg/kg/injection, schedule: Q01DX005 (ip), vehicle: saline with Tween-80
[4] = dose: 60.0 mg/kg/injection, schedule: Q01DX005 (ip), vehicle: saline with Tween-80
[5] = dose: 120.0 mg/kg/injection, schedule: Q01DX005 (ip), vehicle: saline with Tween-80
[6] = dose: 240.0 mg/kg/injection, schedule: Q01DX005 (ip), vehicle: saline with Tween-80
[7] = dose: 120.0 mg/kg/injection, schedule: Q01DX005 (ip), vehicle: Klucel (hydroxypropylcellulose) (HPC)
[8] = dose: 240.0 mg/kg/injection, schedule: Q01DX005 (ip), vehicle: Klucel (hydroxypropylcellulose) (HPC)
[9] = dose: 50.0 mg/kg/injection, schedule: Q01DX005 (ip), vehicle: saline
[10] = dose: 100.0 mg/kg/injection, schedule: Q01DX005 (ip), vehicle: saline
[11] = dose: 50.0 mg/kg/injection, schedule: Q01DX009 (ip), vehicle: saline
[12] = dose: 100.0 mg/kg/injection, schedule: Q01DX009 (ip), vehicle: saline with Tween-80
[13] = dose: 100.0 mg/kg/injection, schedule: Q01DX009 (ip), vehicle: saline
[14] = dose: 1.56 mg/kg/injection, schedule: Q01DX009 (ip), vehicle: saline with Tween-80
[15] = dose: 3.13 mg/kg/injection, schedule: Q01DX009 (ip), vehicle: saline with Tween-80
[16] = dose: 200.0 mg/kg/injection, schedule: Q01DX005 (ip), vehicle: saline
[17] = dose: 50.0 mg/kg/injection, schedule: Q01DX005 (ip), vehicle: Klucel (hydroxypropylcellulose) (HPC)
[18] = dose: 100.0 mg/kg/injection, schedule: Q01DX005 (ip), vehicle: Klucel (hydroxypropylcellulose) (HPC)
[19] = dose: 50.0 mg/kg/injection, schedule: Q04DX002 (ip), vehicle: saline with Tween-80

## CCN(CC)CCNc1ccc(COC(=O)NC)c2oc3ccccc3c(=O)c12
dose: 1.5 mg/kg/injection, schedule: Q01DX005 (ip), vehicle: distilled water + Tween-80
  T/C: 113 % of control
dose: 3.0 mg/kg/injection, schedule: Q01DX005 (ip), vehicle: distilled water + Tween-80
  T/C: 113 % of control
dose: 6.0 mg/kg/injection, schedule: Q01DX005 (ip), vehicle: distilled water + Tween-80
  T/C: 113 % of control
dose: 12.5 mg/kg/injection, schedule: Q01DX005 (ip), vehicle: distilled water + Tween-80
  T/C: 93 % of control

## Nc1nnnn1CCCl
[1]
  T/C: 94 % of control
[2]
  T/C: 103 % of control
[3]
  T/C: 106 % of control

## C=C[C@]1(C)C=C2C(O)CC3C(C)(C)CCC[C@]3(CO)C2CC1 (stereo partly drawn)
[4]
  T/C: 100 % of control
[5]
  T/C: 97 % of control
[6]
  T/C: 96 % of control

## O=C1OC2(O)c3ccccc3C(=O)N2N2CCCC12 (stereo not drawn)
dose: 60.0 mg/kg/injection, schedule: Q01DX005 (ip), vehicle: Klucel (hydroxypropylcellulose) (HPC)
  T/C: 109 % of control
[7]
  T/C: 98 % of control
[8]
  T/C: 98 % of control

## C1CCC2OCCOCCOCCOCCOC2C1 (stereo not drawn)
[9]
  T/C: 95 % of control
[10]
  T/C: 95 % of control

## CCOP(=S)(N1CC1(C)C)N1CC1(C)C (stereo not drawn)
dose: 25.0 mg/kg/injection, schedule: Q01DX009 (ip), vehicle: saline
  T/C: 109 % of control
[11]
  T/C: 109 % of control
[12]
  T/C: 154 % of control
[13]
  T/C: 109 % of control
dose: 100.0 mg/kg/injection, schedule: Q04DX003 (ip), vehicle: saline with Tween-80
  T/C: 109 % of control
dose: 264.0 mg/kg/injection, schedule: Q04DX003 (ip), vehicle: saline with Tween-80
  T/C: 172 % of control
dose: 400.0 mg/kg/injection, schedule: Q04DX003 (ip), vehicle: saline with Tween-80
  T/C: 168 % of control and 204 % of control

## Cc1cc(C)[n+]([O-])c(C)c1
[4]
  T/C: 101 % of control
dose: 60.0 mg/kg/injection, schedule: Q01DX005 (ip), vehicle: saline
  T/C: 105 % of control
[5]
  T/C: 99 % of control
dose: 120.0 mg/kg/injection, schedule: Q01DX005 (ip), vehicle: saline
  T/C: 102 % of control
[6]
  T/C: 97 % of control
dose: 240.0 mg/kg/injection, schedule: Q01DX005 (ip), vehicle: saline
  T/C: 105 % of control

## N#CCCOCNC(=O)NCOCCC#N
[4]
  T/C: 96 % of control
[5]
  T/C: 97 % of control
[6]
  T/C: 90 % of control

## Cc1cc(NCCCN(C)C)c2cc3ccc4cccc5ccc(c2n1)c3c45
dose: 50.0 mg/kg/injection, schedule: Q01DX009 (ip), vehicle: saline with Tween-80
  T/C: 109 % of control
[12]
  T/C: 108 % of control

## C[N+]1(C)N=C([O-])N(c2ccc(Cl)cc2)C1=O
dose: 100.0 mg/kg/injection, schedule: Q04DX002 (ip), vehicle: saline
  T/C: 100 % of control
dose: 200.0 mg/kg/injection, schedule: Q04DX002 (ip), vehicle: saline
  T/C: 103 % of control
dose: 400.0 mg/kg/injection, schedule: Q04DX002 (ip), vehicle: saline
  T/C: 102 % of control

## Cc1ccc2c(ccc(/C=C\c3cc(C)c4cccnc4c3O)[n+]2C)c1
dose: 0.78 mg/kg/injection, schedule: Q01DX009 (ip), vehicle: saline with Tween-80
  T/C: 124 % of control
[14]
  T/C: 122 % of control
[15]
  T/C: 121 % of control

## COCC1(C)CCCC2(C)C3=C(CCC(OC)C3)CCC12 (stereo not drawn)
dose: 100.0 mg/kg/injection, schedule: Q01DX001 (ip), vehicle: saline
  T/C: 99 % of control
dose: 200.0 mg/kg/injection, schedule: Q01DX001 (ip), vehicle: saline
  T/C: 96 % of control
dose: 400.0 mg/kg/injection, schedule: Q01DX001 (ip), vehicle: saline
  T/C: 93 % of control

## COC(=O)C(CCl)NC(C)=O (stereo not drawn)
[9]
  T/C: 97 % of control
[10]
  T/C: 100 % of control
[16]
  T/C: 101 % of control

## CNC(=O)Sc1ccc(C)c(N(C)C)c1
[1]
  T/C: 111 % of control and 117 % of control
[2]
  T/C: 120 % of control

## CCc1cccc(CC)c1NC1=C(Cl)C(=O)c2ccccc2C1=O
[4]
  T/C: 100 % of control
[5]
  T/C: 94 % of control
[6]
  T/C: 104 % of control

## [N-]=[N+]=CC(=O)NC(Cc1ccccc1)C(=O)NN (stereo not drawn)
dose: 25.0 mg/kg/injection, schedule: Q01DX005 (ip), vehicle: Klucel (hydroxypropylcellulose) (HPC)
  T/C: 107 % of control
[17]
  T/C: 98 % of control
[18]
  T/C: 110 % of control

## NCCCCC(C(=O)NC(CCC(=O)OCc1ccccc1)C(=O)Oc1ccc([N+](=O)[O-])cc1)N(C(=O)OCc1ccccc1)C(=O)OCc1ccccc1 (stereo not drawn)
[1]
  T/C: 100 % of control
[2]
  T/C: 100 % of control
[3]
  T/C: 92 % of control

## COC(=O)C1=C(C)NC(=O)NC1c1ccc(N(CCCl)CCCl)c(OC)c1 (stereo not drawn)
[14]
  T/C: 160 % of control
[15]
  T/C: 186 % of control
dose: 6.25 mg/kg/injection, schedule: Q01DX009 (ip), vehicle: saline with Tween-80
  T/C: 117 % of control
dose: 12.5 mg/kg/injection, schedule: Q01DX009 (ip), vehicle: saline with Tween-80
  T/C: 96 % of control

## COC(=O)C1(C(=O)O)ON1C(C)(C)C (stereo not drawn)
[17]
  T/C: 100 % of control
[18]
  T/C: 100 % of control
dose: 200.0 mg/kg/injection, schedule: Q01DX005 (ip), vehicle: Klucel (hydroxypropylcellulose) (HPC)
  T/C: 99 % of control

## Cc1c(C2=NCC(C)S2)ccc(O)c1S(=O)(=O)O (stereo not drawn)
[11]
  T/C: 92 % of control
[13]
  T/C: 92 % of control
dose: 200.0 mg/kg/injection, schedule: Q01DX009 (ip), vehicle: saline
  T/C: 101 % of control

## CCCCCCOC(=O)c1cccc(N)c1
dose: 50.0 mg/kg/injection, schedule: Q01DX009 (ip), vehicle: Klucel (hydroxypropylcellulose) (HPC)
  T/C: 100 % of control
dose: 100.0 mg/kg/injection, schedule: Q01DX009 (ip), vehicle: Klucel (hydroxypropylcellulose) (HPC)
  T/C: 106 % of control
dose: 200.0 mg/kg/injection, schedule: Q01DX009 (ip), vehicle: Klucel (hydroxypropylcellulose) (HPC)
  T/C: 102 % of control

## Nc1cc(C(=O)Nc2ccc(C3=NCCN3)cc2)cc(C(=O)Nc2ccc(C3=NCCN3)cc2)c1
dose: 32.0 mg/kg/injection, schedule: Q01DX010 (ip), vehicle: saline
  T/C: 168 % of control

## O=C1NC(=O)C(Cc2ccccc2)(Cc2ccccc2)S1
[4]
  T/C: 100 % of control
[5]
  T/C: 103 % of control
[6]
  T/C: 96 % of control

## CC1CC(C(=O)c2ccoc2)C(=O)O1 (stereo not drawn)
dose: 12.5 mg/kg/injection, schedule: Q01DX005 (ip), vehicle: saline with Tween-80
  T/C: 92 % of control
dose: 25.0 mg/kg/injection, schedule: Q01DX005 (ip), vehicle: saline with Tween-80
  T/C: 97 % of control
[1]
  T/C: 101 % of control and 91 % of control

## CC(=O)SCC1C(=O)CC(C)(C)CC1=O
dose: 200.0 mg/kg/injection, schedule: Q04DX003 (ip), vehicle: Klucel (hydroxypropylcellulose) (HPC)
  T/C: 89 % of control

## C=C1C(=O)OC2C1CCC1(C)CC(Br)C(=O)C(C)C21 (stereo not drawn)
[19]
  T/C: 104 % of control and 108 % of control and 95 % of control
dose: 100.0 mg/kg/injection, schedule: Q04DX002 (ip), vehicle: saline with Tween-80
  T/C: 100 % of control and 111 % of control and 112 % of control
dose: 200.0 mg/kg/injection, schedule: Q04DX002 (ip), vehicle: saline with Tween-80
  T/C: 106 % of control and 108 % of control
dose: 400.0 mg/kg/injection, schedule: Q04DX002 (ip), vehicle: saline with Tween-80
  T/C: 104 % of control

## O=C(O)c1cnc2c(C(F)(F)F)cccc2c1Nc1ccc2c(c1)OCO2
dose: 7.5 mg/kg/injection, schedule: Q01DX005 (ip), vehicle: Klucel (hydroxypropylcellulose) (HPC)
  T/C: 92 % of control
dose: 15.0 mg/kg/injection, schedule: Q01DX005 (ip), vehicle: Klucel (hydroxypropylcellulose) (HPC)
  T/C: 101 % of control
dose: 30.0 mg/kg/injection, schedule: Q01DX005 (ip), vehicle: Klucel (hydroxypropylcellulose) (HPC)
  T/C: 105 % of control
[7]
  T/C: 101 % of control
[8]
  T/C: 96 % of control

## CN(C)CCC1CC(O)CCC1(C)O (stereo not drawn)
[9]
  T/C: 98 % of control
[10]
  T/C: 100 % of control
[16]
  T/C: 102 % of control

## O=c1[nH]c2cc(Cl)ccc2nc1/C=C(\O)c1ccc2ccccc2c1
[4]
  T/C: 89 % of control
[5]
  T/C: 89 % of control
[6]
  T/C: 110 % of control

## O=S(=O)(N=N/C=C1\C=CC=CN1O)c1cccs1
[19]
  T/C: 100 % of control
dose: 600.0 mg/kg/injection, schedule: Q04DX002 (ip), vehicle: saline with Tween-80
  T/C: 117 % of control

## COc1cccc2cc(-n3nnc4ccccc43)c(=O)oc12
dose: 30.0 mg/kg/injection, schedule: Q01DX005 (ip), vehicle: saline with Tween-80
  T/C: 94 % of control
[4]
  T/C: 86 % of control and 91 % of control and 94 % of control
[5]
  T/C: 94 % of control
[6]
  T/C: 86 % of control and 87 % of control
